Tests used:
[1] = Inhibition of soybean 15-LOX using arachidonic acid or linoleic acid as substrate preincubated for 5 mins followed by substrate addition and measured after 10 mins by colorimetric assay; design: species or system Glycine max
[2] = target: T1, Prostaglandin G/H synthase 1 (Ovis aries, UniProt P05979); test: Inhibition of ovine COX1 using arachidonic acid as substrate preincubated for 10 mins followed by substrate addition and measured after 2 mins by EIA
T1 sequence (P05979 whole entry): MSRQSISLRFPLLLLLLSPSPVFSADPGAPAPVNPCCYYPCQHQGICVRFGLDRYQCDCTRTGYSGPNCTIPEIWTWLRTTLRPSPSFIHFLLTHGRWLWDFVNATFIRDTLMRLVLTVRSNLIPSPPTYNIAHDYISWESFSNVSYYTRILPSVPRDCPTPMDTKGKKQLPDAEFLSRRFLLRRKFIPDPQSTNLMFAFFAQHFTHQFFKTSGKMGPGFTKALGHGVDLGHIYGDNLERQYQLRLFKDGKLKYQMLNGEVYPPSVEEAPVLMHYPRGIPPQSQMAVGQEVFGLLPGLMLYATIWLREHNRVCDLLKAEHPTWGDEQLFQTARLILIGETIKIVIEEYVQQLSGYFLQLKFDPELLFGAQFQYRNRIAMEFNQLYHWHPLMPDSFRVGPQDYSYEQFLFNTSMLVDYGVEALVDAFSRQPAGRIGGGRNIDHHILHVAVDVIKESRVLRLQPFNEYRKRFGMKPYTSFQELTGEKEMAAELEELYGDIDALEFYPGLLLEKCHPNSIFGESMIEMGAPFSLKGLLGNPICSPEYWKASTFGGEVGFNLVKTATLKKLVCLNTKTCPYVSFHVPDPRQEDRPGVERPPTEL

Rattus norvegicus [3] = test: Antiinflammatory activity in albino rat assessed as reduction in carrageenan-induced paw edema by measuring thickness of right paw at 28 uM/kg, ip measured at 3 hrs by calliper method (reference value: 7.83 +/- 0.33 cm); assay type: functional
Rattus norvegicus [4] = test: Anti-inflammatory activity in albino rat assessed as inhibition of carrageenan-induced paw edema at 28 uM/kg, ip measured at 4 hrs by calliper method relative to control; assay type: functional
Rattus norvegicus [5] = test: Anti-inflammatory activity in albino rat assessed as inhibition of carrageenan-induced paw edema at 28 uM/kg, ip measured at 3 hrs by calliper method relative to control; assay type: functional
Rattus norvegicus [6] = test: Anti-inflammatory activity in albino rat assessed as inhibition of carrageenan-induced paw edema at 28 uM/kg, ip measured at 2 hrs by calliper method relative to control; assay type: functional
Rattus norvegicus [7] = test: Antiinflammatory activity in albino rat assessed as reduction in carrageenan-induced paw edema by measuring thickness of right paw at 28 uM/kg, ip measured at 4 hrs by calliper method (reference value: 8.50 +/- 0.58 cm); assay type: functional
Rattus norvegicus [8] = test: Antiinflammatory activity in albino rat assessed as reduction in carrageenan-induced paw edema by measuring thickness of right paw at 28 uM/kg, ip measured at 0.5 hrs by calliper method (reference value: 7.33 +/- 0.17 cm); assay type: functional
Rattus norvegicus [9] = test: Anti-inflammatory activity in albino rat assessed as inhibition of carrageenan-induced paw edema at 28 uM/kg, ip measured at 4 hrs by calliper method relative to indomethacin; assay type: functional; design: scale not given: the % may be the effect or the level left
Rattus norvegicus [10] = test: Anti-inflammatory activity in albino rat assessed as inhibition of carrageenan-induced paw edema at 28 uM/kg, ip measured at 1 hr by calliper method relative to control; assay type: functional
Rattus norvegicus [11] = test: Anti-inflammatory activity in albino rat assessed as inhibition of carrageenan-induced paw edema at 28 uM/kg, ip measured at 0.5 hrs by calliper method relative to control; assay type: functional
Rattus norvegicus [12] = test: Antiinflammatory activity in albino rat assessed as reduction in carrageenan-induced paw edema by measuring thickness of right paw at 28 uM/kg, ip measured at 2 hrs by calliper method (reference value: 7.67 +/- 0.17 cm); assay type: functional
Rattus norvegicus [13] = test: Antiinflammatory activity in albino rat assessed as reduction in carrageenan-induced paw edema by measuring thickness of right paw at 28 uM/kg, ip measured at 1 hr by calliper method (reference value: 7.33 +/- 0.17 cm); assay type: functional
Rattus norvegicus [14] = test: Antiinflammatory activity in albino rat assessed as reduction in carrageenan-induced paw edema by measuring thickness of right paw at 28 uM/kg, ip measured immediately by calliper method (reference value: 6.83 +/-0.17 cm); assay type: functional
Rattus norvegicus [15] = test: Anti-inflammatory activity in albino rat assessed as inhibition of carrageenan-induced paw edema at 28 uM/kg, ip measured at 3 hrs by calliper method relative to indomethacin; assay type: functional; design: scale not given: the % may be the effect or the level left
[16] = target: T2, Prostaglandin G/H synthase 2 (Homo sapiens, UniProt P35354); test: Inhibition of COX2 (unknown origin)
T2 sequence (P35354 whole entry): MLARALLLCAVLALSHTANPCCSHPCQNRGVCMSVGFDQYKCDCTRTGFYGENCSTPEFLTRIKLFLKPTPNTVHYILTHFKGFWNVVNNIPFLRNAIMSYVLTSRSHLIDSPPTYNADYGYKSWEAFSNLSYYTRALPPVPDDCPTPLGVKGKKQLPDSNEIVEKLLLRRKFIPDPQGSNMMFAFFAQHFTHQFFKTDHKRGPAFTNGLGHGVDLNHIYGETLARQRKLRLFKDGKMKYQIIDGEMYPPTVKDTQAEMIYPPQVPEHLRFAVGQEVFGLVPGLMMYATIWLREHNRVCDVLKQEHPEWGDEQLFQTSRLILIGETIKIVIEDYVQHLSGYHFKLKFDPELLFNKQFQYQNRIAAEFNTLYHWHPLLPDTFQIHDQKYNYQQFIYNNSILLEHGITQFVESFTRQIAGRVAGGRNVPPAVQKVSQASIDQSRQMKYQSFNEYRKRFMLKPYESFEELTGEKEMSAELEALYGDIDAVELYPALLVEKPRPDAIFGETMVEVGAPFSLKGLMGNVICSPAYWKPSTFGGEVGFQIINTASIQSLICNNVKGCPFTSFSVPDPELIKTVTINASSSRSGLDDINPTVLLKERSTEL

[17] = Ulcerogenic activity in albino rat assessed as damage of gastric mucosa surface epithelium at 10 to 50 mg/kg, po measured after 6 hrs by H and E staining based light microscopic assay; assay type: toxicity, organism-based; conditions: in vivo
[18] = Ulcerogenic activity in albino rat assessed as ulcer formation with distorted gastric gland at 10 to 50 mg/kg, po measured after 6 hrs by H and E staining based light microscopic assay; assay type: toxicity, organism-based; conditions: in vivo
[19] = Ulcerogenic activity in albino rat assessed as congestion of blood vessel at 10 to 50 mg/kg, po measured after 6 hrs by H and E staining based light microscopic assay; assay type: toxicity, organism-based; conditions: in vivo
[20] = Ulcerogenic activity in albino rat assessed as damage of scarred mucosal epithelium at 10 to 50 mg/kg, po measured after 6 hrs by H and E staining based light microscopic assay; assay type: toxicity, organism-based; conditions: in vivo
[21] = target: Prostaglandin G/H synthase 1 (Homo sapiens, UniProt P23219); test: Inhibition of human COX1 expressed in CHO cells assessed as reduction in arachidonic acid-stimulated PGE2 production; assay type: cell-based
[22] = Ulcerogenic activity in albino rat assessed as effect on gastric mucosa membrane at 10 to 50 mg/kg, po measured after 6 hrs by H and E staining based light microscopic assay; assay type: toxicity, organism-based; conditions: in vivo

Prostaglandin G/H synthase 1 (Homo sapiens, UniProt P23219), sequence (P23219 whole entry): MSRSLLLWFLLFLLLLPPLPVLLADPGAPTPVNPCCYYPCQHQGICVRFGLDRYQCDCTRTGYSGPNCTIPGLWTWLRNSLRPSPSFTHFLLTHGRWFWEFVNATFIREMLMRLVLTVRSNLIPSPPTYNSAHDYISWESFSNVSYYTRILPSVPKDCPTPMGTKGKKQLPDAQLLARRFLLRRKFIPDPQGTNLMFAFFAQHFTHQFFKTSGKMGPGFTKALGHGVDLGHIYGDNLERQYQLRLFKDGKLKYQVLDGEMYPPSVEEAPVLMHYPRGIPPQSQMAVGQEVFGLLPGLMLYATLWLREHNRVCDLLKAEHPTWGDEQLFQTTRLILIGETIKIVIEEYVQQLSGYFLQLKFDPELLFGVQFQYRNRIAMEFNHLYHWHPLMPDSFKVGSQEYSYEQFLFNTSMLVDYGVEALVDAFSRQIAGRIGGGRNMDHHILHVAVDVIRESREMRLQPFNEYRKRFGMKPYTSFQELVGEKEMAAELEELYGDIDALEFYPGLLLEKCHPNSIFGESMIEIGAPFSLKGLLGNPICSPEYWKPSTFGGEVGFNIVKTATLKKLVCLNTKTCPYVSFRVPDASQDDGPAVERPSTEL

CSc1nc2ccccc2n1-c1csc(N)n1
IC50 [1]: 6.56 µM | IC50 [2]: 4.17 µM

O=C1N/C(=N\c2nnc(-c3ccc(O)cc3)s2)S/C1=C\c1ccc(Cl)c(Cl)c1
IC50 [1]: 11.9 µM

CCn1c(-n2cc(/C=N/N=c3\scc(-c4ccc(Br)cc4)n3-c3ccccc3)c(-c3ccc(OC)cc3)n2)nc2c1c(=O)n(C)c(=O)n2C
IC50 [1]: 1.82 µM

CSc1nc2ccccc2n1-c1csc(NC/C(C)=N/NC(=S)Nc2ccccc2)n1
Activity (Rattus norvegicus [3]): 4.83 cm | inhibition (INH) (Rattus norvegicus [4]): 68.8% | inhibition (INH) (Rattus norvegicus [5]): 70.97% | inhibition (INH) (Rattus norvegicus [6]): 64.1% | Activity (Rattus norvegicus [7]): 5.5 cm | IC50 [1]: 2.98 µM | Activity (Rattus norvegicus [8]): 5.67 cm | Activity (Rattus norvegicus [9]): 87.28% | inhibition (INH) (Rattus norvegicus [10]): 53.73% | inhibition (INH) (Rattus norvegicus [11]): 38.43% | Activity (Rattus norvegicus [12]): 4.67 cm | IC50 [2]: 10.7 µM | Activity (Rattus norvegicus [13]): 5 cm | Activity (Rattus norvegicus [14]): 7.33 cm | Activity (Rattus norvegicus [15]): 102.31%

CCn1c(-n2cc(/C=N/N=c3\[nH]c(-c4ccc(Br)cc4)cs3)c(-c3ccc(OC)cc3)n2)nc2c1c(=O)n(C)c(=O)n2C
IC50 [1]: 1.76 µM

CSc1nc2ccccc2n1-c1csc(NCC(=O)c2ccc(Cl)cc2)n1
IC50 [1]: 4.15 µM | IC50 [2]: 8.14 µM

CSc1nc2ccccc2n1-c1csc(=N)n1CC(=O)c1ccccc1
IC50 [1]: 3.98 µM | IC50 [2]: 9.84 µM

CSc1nc2ccccc2n1-c1csc(NC(=O)c2ccccc2)n1
IC50 [1]: 4.12 µM | IC50 [2]: 5.33 µM

Fc1ccccc1-c1nnc(Cn2c(CN3CCCCC3)nc3ccccc32)o1
IC50 [16]: 0.06 to 0.81 µM

CSc1nc2ccccc2n1-c1csc(NC/C(C)=N/N=c2\scc(-c3ccccc3)n2-c2ccccc2)n1
IC50 [1]: 1.85 µM | IC50 [2]: 12.4 µM

O=c1c(O)c(-c2ccc(O)c(O)c2)oc2cc(O)cc(O)c12 [QUERCETIN]
IC50 [1]: 3.34 µM

COc1ccc2c(c1)c(CC(=O)O)c(C)n2C(=O)c1ccc(Cl)cc1 [INDOMETHACIN]
Activity (Rattus norvegicus [3]): 4.5 cm | inhibition (INH) (Rattus norvegicus [4]): 78.83% | inhibition (INH) (Rattus norvegicus [5]): 69.37% | Activity [17]: Toxic | inhibition (INH) (Rattus norvegicus [6]): 63.7% | Activity [18]: Toxic | Activity (Rattus norvegicus [7]): 4.17 cm | Activity (Rattus norvegicus [8]): 5.83 cm | inhibition (INH) (Rattus norvegicus [10]): 54.17% | inhibition (INH) (Rattus norvegicus [11]): 34.7% | Activity [19]: Toxic | Activity (Rattus norvegicus [12]): 4.67 cm | Activity (Rattus norvegicus [13]): 5 cm | Activity [20]: Toxic | Activity (Rattus norvegicus [14]): 7.17 cm

CSc1nc2ccccc2n1-c1csc(NCC(C)=O)n1
IC50 [1]: 2.93 µM | IC50 [2]: 11.7 µM

O=[N+]([O-])c1ccc(-c2nnc(Cn3c(CN4CCCCC4)nc4ccccc43)o2)cc1
IC50 [16]: 0.06 to 0.81 µM

CCn1c(-n2cc(/C=N/N=C3/NC(=O)CS3)c(-c3ccc(OC)cc3)n2)nc2c1c(=O)n(C)c(=O)n2C
IC50 [1]: 1.98 µM

CS(=O)(=O)c1ccc(-c2c(-c3ccccc3)nc3sccn23)cc1
IC50 [21]: > 50 µM

Clc1ccc(-c2nnc(Cn3c(CN4CCCCC4)nc4ccccc43)o2)cc1
IC50 [16]: 0.06 to 0.81 µM

CSc1nc2ccccc2n1-c1csc2nc(-c3ccccc3)cn12
IC50 [1]: 5.46 µM | IC50 [2]: 5.97 µM

CSc1nc2ccccc2n1-c1csc(NC/C(C)=N/N=c2\scc(-c3ccc(Cl)cc3)n2-c2ccccc2)n1
Activity (Rattus norvegicus [3]): 4.67 cm | inhibition (INH) (Rattus norvegicus [5]): 75.67% | inhibition (INH) (Rattus norvegicus [6]): 56.67% | Activity (Rattus norvegicus [7]): 5.67 cm | IC50 [1]: 1.67 µM | Activity (Rattus norvegicus [8]): 6.33 cm | Activity (Rattus norvegicus [9]): 93.2% | inhibition (INH) (Rattus norvegicus [10]): 46.27% | inhibition (INH) (Rattus norvegicus [11]): 22.67% | Activity (Rattus norvegicus [12]): 5 cm | IC50 [2]: 13.2 µM | Activity (Rattus norvegicus [13]): 5.33 cm | Activity (Rattus norvegicus [14]): 7.17 cm | Activity (Rattus norvegicus [15]): 109.08%

CSc1nc2ccccc2n1-c1csc(NC(=O)c2ccc(C)cc2)n1
IC50 [1]: 4.96 µM | IC50 [2]: 6.23 µM

CSc1nc2ccccc2n1-c1csc(NC/C(C)=N/N=c2\scc(-c3ccc(C)cc3)n2-c2ccccc2)n1
IC50 [1]: 2.14 µM | IC50 [2]: 13.2 µM

CSc1nc2ccccc2n1-c1csc(NC(=O)c2ccc(Cl)cc2)n1
IC50 [1]: 5.11 µM | IC50 [2]: 7.11 µM

Fc1ccc(-c2nnc(Cn3c(CN4CCCCC4)nc4ccccc43)o2)cc1
IC50 [16]: 0.06 to 0.81 µM

CSc1nc2ccccc2n1-c1csc(NC/C(C)=N/N=C2\SCC(=O)N2c2ccccc2)n1
Activity (Rattus norvegicus [3]): 3.83 cm | inhibition (INH) (Rattus norvegicus [4]): 80.57% | inhibition (INH) (Rattus norvegicus [5]): 82.83% | inhibition (INH) (Rattus norvegicus [6]): 74.83% | Activity (Rattus norvegicus [7]): 4.5 cm | Activity [22]: Non-Toxic | IC50 [1]: 1.96 µM | Activity (Rattus norvegicus [8]): 5.67 cm | Activity (Rattus norvegicus [9]): 102.21% | inhibition (INH) (Rattus norvegicus [10]): 61.6% | inhibition (INH) (Rattus norvegicus [11]): 38.4% | Activity [19]: Toxic | Activity (Rattus norvegicus [12]): 4.17 cm | IC50 [2]: 10.6 µM | Activity (Rattus norvegicus [13]): 4.67 cm | Activity (Rattus norvegicus [14]): 7 cm | Activity (Rattus norvegicus [15]): 119.4%

— ChEMBL document CHEMBL4627319, “Novel class of benzimidazole-thiazole hybrids: The privileged scaffolds of potent anti-inflammatory activity with dual inhibition of cyclooxygenase and 15-lipoxygenase enzymes” (Bioorg Med Chem, 2020)
